This is an account of results in patent US12201632B2, “Levoketoconazole for treatment of congenital adrenal hyperplasia and primary aldosteronism” (Strongbridge Dublin Limited, priority 2018, dated 2025).

The test system of test [1] is primary human adrenocortical carcinoma cultures. Put plainly: Cortisol production in primary adrenocortical carcinoma cultures. It is filed as cell-based. As to the method:
(§1) To obtain primary cultures, adrenal specimens (adrenocortical adenomas, adrenal hyperplasias and adrenocortical carcinomas) were collected after adrenalectomy at the department of Surgery, Erasmus University Medical Center, Rotterdam, the Netherlands, between April 2016 and May 2018. The study was conducted under guidelines that have been approved by the Medical Ethics Committee of the Erasmus Medical Center and informed consent was obtained from all patients. Immediately after surgery, specimens were minced into small pieces of 2-3 mm^3, washed in culture medium and centrifuged for 5 minutes at 600 g. The tissue was stored overnight in culture medium at 4° C., where after the tissue was centrifuged again and the supernatant was removed. Fragments were dissociated using 10-25 ml collagenase type 1 (2 mg/ml: Sigma-Aldrich), followed by incubation at 37° C. for up to two hours. Ficoll (GE healthcare) density gradient separation was used once or twice as required in order to separate contaminating red blood cells from the tumor cells. Cell viability and cell amount were counted by trypan blue exclusion. Dissociated cells were plated at a density of 10^5 cells per well. ACTH-secreting corticotroph pituitary adenoma tissue from patients with Cushing's disease (n=2) was available after transsphenoidal surgery. Single-cell suspensions of the pituitary adenoma tissues were prepared as previously described in detail.
(§2) Owing to a limited number of cells obtained from the specimens, not all experiments were carried out in every primary culture.
(§3) Cortisol concentrations were measured in the supernatant using a chemiluminescence immunoassay system (Immulite 2000XPi; Siemens DPC Inc., Los Angeles, Calif., USA). In addition, we carried out multi-steroid analysis by liquid chromatography/mass spectrometry (LC/MS-MS) to accurately quantify androstenedione, corticosterone, cortisol, 11-deoxycortisol, DHEA, DHEAS, progesterone, 17-hydroxyprogesterone, and testosterone. Concentrations that were tested on the LC/MS-MS were closest to 50% inhibition or maximal inhibition of cortisol as determined by the immunoassay. Steroids were quantified with respect to a calibration series, with internal standards. Steroids were quantified on a Xevo TQS LC-MS/MS (Waters Chromatography).
(§4) Statistical analysis was performed using Graphpad Prism 6.0 (Graphpad Software, San Diego, CA). Non-linear regression curve fitting program was used to calculate the half maximal inhibitory concentrations (IC50) on cortisol production. Effects of both compounds on the steroid profile were measured as absolute change compared to control and compared using the Student's t-test. When assessing differences between effects of both compounds, the percentage change was evaluated and compared in order to correct for differences in the vehicle treated control cells. Values of P<0.05 were considered statistically significant and data are presented as mean SEM.

In test [2] the test system is human primary adrenocortical cultures. Put plainly: Cortisol production in human primary adrenocortical cultures, comparison across cultures. The class given is cell-based. On the procedure:
as §1
Primary culture conditions for primary cultures were similar as described in the section ‘cell culture and compounds’, but with small adjustments: ACTH was used at a concentration of 85 pM (250 pg/mL), treatment was started 3-4 days after plating of the cells and cells were incubated for 3 days, and; for pituitary primary cultures, levoketoconazole and racemic ketoconazole were only tested at a concentration of 1 μM. Owing to a limited number of cells obtained from the specimens, not all experiments were carried out in every primary culture.
as §3, §4

Test [3] concerns primary human corticotroph pituitary adenoma cultures. The test is described as follows: Cell amount in primary corticotroph pituitary adenoma cultures. It is filed as cell-based. The note with it: corticotroph pituitary adenoma primary culture no. 2, 1 μM, 7 days. On the procedure: as §1, with “ACTH-secreting corticotroph pituitary adenoma tissue from patients with Cushing's disease (n=2) was available after transsphenoidal surgery. Single-cell suspensions of the pituitary adenoma tissues were prepared as previously described in detail.” left out
As a measure of cell number, DNA concentrations were determined using the bisbenzimide fluorescent dye (Hoechst 33258, Sigma Aldrich), as previously described.

Test [4] shares this test system. Put plainly: ACTH secretion corrected for cell number in primary corticotroph pituitary adenoma cultures. The class given is cell-based. Particulars: both primary pituitary adenoma cultures, 1 μM, 7 days. On the procedure:
as §1, with “Ficoll (GE healthcare) density gradient separation was used once or twice as required in order to separate contaminating red blood cells from the tumor cells.” left out, “Dissociated cells were plated at a density of 10^5 cells per well. ACTH-secreting corticotroph pituitary adenoma tissue from patients with Cushing's disease (n=2) was available after transsphenoidal surgery. Single-cell suspensions of the pituitary adenoma tissues were prepared as previously described in detail.” left out
At the end of the AtT20 and primary pituitary adenoma culture experiments, medium was collected and supplemented with 1% of the protease inhibitor Trasylol to prevent degradation of ACTH. ACTH was measured using a commercially available, nonisotopic automatic chemiluminescence system (DPC Immulite).

Test [5] concerns EAS associated adrenal hyperplasia cultures. Put plainly: Cortisol production in primary EAS associated adrenal hyperplasia cultures. The class given is cell-based, human. As to the method:
as §1, §2, §3, §4

Setting [6] is: six of the ten conditions with direct comparison in the same patient.

Like-named read-outs stand apart in the source and are kept apart here.

As usually defined, the IC50 is the concentration needed to halve the response being measured. Consider `CC(=O)N1CCN(c2ccc(OC[C@@H]3CO[C@@](Cn4ccnc4)(c4ccc(Cl)cc4Cl)O3)cc2)CC1` (relative stereo) [levoketoconazole, 2S,4R cis-1-acetyl-4-[4-[[2-(2,4-dichlorophenyl)-2-(1H-imidazol-1-ylmethyl)-1,3-dioxolan-4-yl]methoxyl]phenyl]piperazine], for which the half-inhibitory concentration (IC50) in test [1] (ACC no. 1, basal condition, 3 days, read-out: IC50 inhibition of cortisol production) was determined as 5.78 nM; in test [1] (ACC no. 2, basal condition, 3 days, read-out: IC50 inhibition of cortisol production), 57.1 nM; in test [1] (ACC no. 3, ACTH (85 μM) stimulated condition, 3 days, read-out: IC50 inhibition of cortisol production) it was 32.1 nM; in test [1] (ACC no. 3, basal condition, 3 days, read-out: IC50 inhibition of cortisol production), 73.1 nM; in test [1] (basal condition, ACC (n=3), read-out: mean IC50 cortisol production) it was 38.3 nM; in test [5] (EAS associated hyperplasia no. 1, ACTH (85 μM) stimulated condition, 3 days, read-out: IC50 inhibition of cortisol production), 79.9 nM. In addition, the IC50 in test [5] (EAS associated hyperplasia no. 1, basal condition, 3 days, read-out: IC50 inhibition of cortisol production) came to 27.7 nM; in test [5] (EAS associated hyperplasia no. 2, basal condition, 3 days, read-out: IC50 inhibition of cortisol production), 22 nM; in test [5] (basal condition, EAS associated adrenal hyperplasia (n=2), read-out: mean IC50 cortisol production), 25.7 nM. The “difference in IC50 value between patients and tissue specimens” value in test [2] (primary human adrenocortical cultures) came out at 24 fold. The “effect on cell number” value in test [3] was “significantly inhibited cell number”. Also, the “effects on ACTH secretion corrected for cell number” value in test [4] was “No effects”.

Take `CC(=O)N1CCN(c2ccc(OCC3COC(Cn4ccnc4)(c4ccc(Cl)cc4Cl)O3)cc2)CC1` (racemic) [racemic ketoconazole, Ketoconazole]: the IC50 came to 76.3 nM in test [1] (Homo sapiens, 72 h, ACC no. 2, basal condition, 3 days, read-out: IC50 inhibition of cortisol production); 67.6 nM in test [1] (Homo sapiens, 72 h, ACC no. 3, basal condition, 3 days, read-out: IC50 inhibition of cortisol production); 106 nM in test [5] (Homo sapiens, 72 h, EAS associated hyperplasia no. 1, ACTH (85 μM) stimulated condition, 3 days, read-out: IC50 inhibition of cortisol production); 26.2 nM in test [5] (Homo sapiens, 72 h, EAS associated hyperplasia no. 1, basal condition, 3 days, read-out: IC50 inhibition of cortisol production); 29.6 nM in test [5] (Homo sapiens, 72 h, EAS associated hyperplasia no. 2, basal condition, 3 days, read-out: IC50 inhibition of cortisol production). Also, the “mean difference in IC50 between both compounds” value in test [2] (four remaining cultures) stood at 5%. For the same compound, the “range of difference in IC50 between both compounds” value in test [2] (four remaining cultures) was 1-8%. The “mean increase IC50 compared to levoketoconazole” value in test [2] (setting [6]) came out at 52%. Moreover, the “range of increase IC50 compared to levoketoconazole” value in test [2] (setting [6]) is recorded as 33-113%. In test [3], the “effect on cell number” value is recorded as “not observed”. Further, the “effects on ACTH secretion corrected for cell number” value in test [4] is “No effects”.
